Assay results as given in PubChem BioAssay (NCI).
“And” between values parts separate entries of the source, which are not always exact repeats. Equal entries are not always repeated.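 Briefly, cells in 96-well plates were exposed to five compound concentrations for 48 h, and endpoints were estimated by linear interpolation. Abbreviation: GI50, concentration required for 50% inhibition of growth. Definition used: TGI = concentration required for complete inhibition of growth.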

How the values were obtained:
Assay in all cases: NCI tumour cell line growth inhibition, 48 h
[1] = test system: CCRF-CEM leukemia
[2] = test system: HOP-92 NSCLC
[3] = test system: A549 NSCLC
[4] = test system: MDA-MB-435
[5] = test system: SNB-75 CNS
[6] = test system: MCF7 breast
[7] = test system: RXF 393 renal
[8] = test system: OVCAR-4 ovarian
[9] = test system: SF-268 CNS
[10] = test system: BT-549 breast

| Structure (SMILES) | TGI [1] | TGI [2] | TGI [3] | TGI [4] | TGI [5] | TGI [6] | TGI [7] | TGI [8] | TGI [9] | TGI [10] | GI50 [1] | GI50 [2] | GI50 [3] | GI50 [4] | GI50 [5] | GI50 [6] | GI50 [7] | GI50 [8] | GI50 [9] | GI50 [10] |
| --- | --- | --- | --- | --- | --- | --- | --- | --- | --- | --- | --- | --- | --- | --- | --- | --- | --- | --- | --- | --- |
| CCc1nc(N)nc(N)c1-c1ccc(N2CCNCC2)c([N+](=O)[O-])c1 | > 72.1 µM | > 100 µM | > 100 µM | > 100 µM | > 95.8 µM | > 79.1 µM | > 100 µM | > 100 µM | > 37.5 µM | > 100 µM |  |  |  |  |  |  |  |  |  |  |
| Nc1ncc(-c2ccc3ncnc(N4CCc5cc(F)c(Cl)cc54)c3c2)cc1C=O | > 100 µM | 1.46 µM | 12.5 µM | 6.97 µM | 2.77 µM | > 100 µM | 2.14 µM | > 100 µM | > 100 µM | > 100 µM | 2.12 µM | 0.149 µM | 0.949 µM | 0.909 µM | 0.191 µM | 1.7 µM | 0.471 µM | 2.98 µM | 1.02 µM | 1.31 µM |
| O=C1NC(=NCCc2ccccc2F)S/C1=C\c1ccc2ncccc2c1 | > 20.1 µM | > 25 µM | > 25 µM | > 16.8 µM | 19.1 µM | > 25 µM | > 25 µM | > 20.6 µM | > 25 µM | > 25 µM | 5.05 µM | 7.84 µM | 5.39 µM | 1.57 µM | 5.34 µM | 1.68 µM | 7.18 µM | 6.45 µM | 7.76 µM | 6.48 µM |
| COc1ccc(/C=C/C(=O)OC2CC34CCNC35CC(OC5(OC)C2OC)c2ccc(OC)c(O)c24)cc1O (stereo not drawn) | > 100 µM | > 100 µM | > 100 µM | > 100 µM | 92.7 µM and > 100 µM | > 100 µM | 65.6 µM and > 100 µM | > 100 µM | > 100 µM | > 100 µM | 30.8 µM and > 100 µM |  |  |  | 14 µM and > 100 µM |  | 21.6 µM and > 100 µM |  |  |  |
| CCN(CC)CCOc1ccc2c(-c3ccccc3)c(-c3ccc(OC)cc3)c(=O)oc2c1 | 15.4 µM | 10.7 µM | 22 µM | 10.6 µM | 16.7 µM | 14.1 µM | 13.7 µM | 18.1 µM | 21.7 µM | 19.4 µM | 3.34 µM | 2.47 µM | 7.76 µM | 3.3 µM | 3.69 µM | 4.33 µM | 3.23 µM | 4.8 µM | 8.4 µM | 6.16 µM |
| CC(C)(Oc1cccc(N2CCC[C@@H](C(=O)N(Cc3ccc(-c4cn[nH]c4)cc3)C3CC3)C2)c1)C(=O)N1CCNCC1 | > 100 µM | 23.8 µM | 32.2 µM | 27.2 µM | 18.3 µM | 25.4 µM | 8.26 µM | 25.2 µM | 24.7 µM | 26.6 µM | 24.1 µM | 9.9 µM | 14.1 µM | 13.8 µM | 1.56 µM | 11.6 µM | 1.85 µM | 11.1 µM | 10.7 µM | 13.3 µM |
| CC1(C)CCC2(C(=O)O)C(O)CC3(C)C(=CCC4C5(C)CCC(OC6OCC(O)C(O)C6OC6OCC(O)C(O)C6OC6OCC(O)C(OC7OC(CO)C(O)C(O)C7O)C6O)C(C)(C)C5CCC43C)C2C1 (stereo not drawn) | 71.9 µM | 82.7 µM | > 100 µM | 93 µM | 40.1 µM | > 100 µM | 59.1 µM | 88.7 µM | 64 µM | 86.4 µM |  |  |  |  |  |  |  |  |  |  |
| CCCCCCCCCCCCCCCC(=O)OCC1OC(OCCCC)[C@H](O[C@@H]2OC(C)C(OC(=O)CCC)C(O)C2O)C(O)C1O (stereo partly drawn) | 35 µM | 33.2 µM | 34 µM | 27.3 µM | 28.7 µM | > 100 µM | 61.2 µM | 34.2 µM | 42.4 µM | 41.7 µM | 17.2 µM | 17 µM | 17.4 µM | 13.3 µM | 14.4 µM | 30.1 µM | 22.3 µM | 18.1 µM | 18.4 µM | 23.4 µM |
| N#Cc1c(-c2ccccc2)nc(SCC(O)CN2CCOCC2)nc1N1CCOCC1 (stereo not drawn) | > 100 µM | 2.23 µM | > 100 µM | > 100 µM | 11.1 µM | 8.51 µM | 31.8 µM | > 100 µM | > 100 µM | > 100 µM | 88 µM | 0.442 µM | 6.43 µM | 19.6 µM | 1.36 µM | 0.098 µM | 5.55 µM | 16.3 µM | 17.8 µM | 7.26 µM |
| Cc1cc2c3c(nc4ccccc42)C(=O)c2cccnc2-c3n1 | 1.4 µM | 8.52 µM | 1.84 µM | 0.332 µM | 3.09 µM | 0.156 µM | 3.19 µM | 4.27 µM | > 19.9 µM | 2.41 µM | 0.171 µM | 0.941 µM | 0.372 µM | 0.162 µM | 0.833 µM | 0.0212 µM | 1.17 µM | 1.28 µM | 0.786 µM | 1.15 µM |
| O=C(NNC1=NS(=O)(=O)c2ccccc2N1c1ccccc1)c1cnccn1 | > 100 µM | > 100 µM | > 100 µM | > 100 µM | > 100 µM | > 100 µM | > 100 µM | > 100 µM | > 100 µM | > 100 µM | > 100 µM | > 100 µM | > 100 µM | > 100 µM | > 100 µM | > 100 µM | > 100 µM | > 100 µM | > 100 µM | > 100 µM |
| O=C(O)c1cc(-c2ccc(-c3ccccc3)cc2)nc2cc3ccccc3cc12 | 39.8 µM | 82.2 µM | > 100 µM | > 100 µM | 69.9 µM | > 100 µM | > 100 µM | > 100 µM | > 100 µM | > 100 µM |  |  |  |  |  |  |  |  |  |  |
| Cn1cc(Nc2nccc(-c3ccc4c(c3)CN(C3COC3)CC[C@H]4NC(=O)c3cn(C(C)(C)C)nn3)n2)cn1 | > 100 µM | 89.7 µM | > 100 µM | > 100 µM | > 100 µM | > 100 µM | > 100 µM | > 100 µM | > 100 µM | > 100 µM | > 100 µM | 16 µM | 86.8 µM | 42.3 µM | 24.4 µM | 41.4 µM | 26.6 µM | > 100 µM | > 100 µM | > 100 µM |
| O=C(Nc1nc2ccc(OC(F)(F)F)cc2s1)c1ccc(F)cc1 | > 100 µM | 8.35 µM | > 100 µM | > 100 µM | 53.9 µM | 18.2 µM | 13.7 µM | > 100 µM | > 100 µM | 54.6 µM | 3.96 µM | 3.91 µM | 3.51 µM | 2.98 µM | 3.45 µM | 2.12 µM | 2.68 µM | 2.95 µM | 3.71 µM | 3.76 µM |
| COc1cc(C(=O)/C=C/c2cccnc2Nc2ccc(Cl)cc2)cc(OC)c1OC | 4.87 µM | 2.14 µM | 3.6 µM | 3.36 µM | 3 µM | 2.35 µM | 2.61 µM | 2.98 µM | 3.19 µM | 2.85 µM | 0.369 µM | 0.519 µM | 1.63 µM | 1.49 µM | 1.63 µM | 1.02 µM | 1.26 µM | 1.51 µM | 1.72 µM | 1.5 µM |
| COc1ccc(-c2cc(-c3ccc(Cl)cc3)nc(SCCCC(=O)NO)n2)cc1OC | 33.4 µM | 5.33 µM | 8.59 µM | 3.12 µM | 6.31 µM | 5.39 µM | 1.66 µM | 12.3 µM | 3.81 µM | 12 µM | 0.488 µM | 1.76 µM | 1.58 µM | 1.42 µM | 1.49 µM | 1.63 µM | 0.417 µM | 0.889 µM | 1.28 µM | 1.94 µM |
